# Data reported in patent publication US20220047603A1, “SUBSTITUTED PYRROLOPYRIDINE-DERIVATIVES” (BAYER AKTIENGESELLSCHAFT, priority 2018, published 2022).
# Columns and labels:
# human TBK1 = biological target: T1, human TBK1 (Homo sapiens, UniProt Q9UHD2); assay: TBK1 high ATP kinase assay (TR-FRET); type: biochemical; conditions: 1 mM ATP, selectivity assay, 15 min preincubation
# T1 construct: Recombinant full-length N-terminally His-tagged human TBK1; His (N); purchased Life Technologies PR5618B; host or cells: insect cells
# T1 sequence (Q9UHD2 1-729): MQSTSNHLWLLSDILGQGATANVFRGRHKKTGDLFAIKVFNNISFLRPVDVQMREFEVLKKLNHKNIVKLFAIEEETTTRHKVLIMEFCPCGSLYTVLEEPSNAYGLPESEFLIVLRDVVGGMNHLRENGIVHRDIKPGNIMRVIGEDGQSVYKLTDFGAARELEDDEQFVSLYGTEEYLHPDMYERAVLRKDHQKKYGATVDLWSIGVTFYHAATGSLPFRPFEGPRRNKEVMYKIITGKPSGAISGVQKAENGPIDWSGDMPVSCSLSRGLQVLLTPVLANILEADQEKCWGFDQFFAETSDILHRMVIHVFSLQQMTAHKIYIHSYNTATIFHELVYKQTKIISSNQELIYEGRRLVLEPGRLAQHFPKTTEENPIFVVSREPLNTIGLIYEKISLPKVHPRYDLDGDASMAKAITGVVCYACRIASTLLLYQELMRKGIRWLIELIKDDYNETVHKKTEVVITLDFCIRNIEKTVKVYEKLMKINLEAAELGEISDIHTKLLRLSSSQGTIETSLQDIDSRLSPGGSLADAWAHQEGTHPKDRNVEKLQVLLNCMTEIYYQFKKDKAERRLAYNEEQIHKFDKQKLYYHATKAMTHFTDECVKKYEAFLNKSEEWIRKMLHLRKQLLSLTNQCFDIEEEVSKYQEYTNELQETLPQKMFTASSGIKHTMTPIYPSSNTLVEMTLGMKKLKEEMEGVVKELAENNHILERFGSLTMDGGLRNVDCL
# Description: TBK1 High ATP Kinase Assay
# TBK1-inhibitory activity of compounds of the present invention at a high ATP concentration after preincubation of enzyme and test compounds was quantified employing the TR-FRET-based TBK1 assay as described in the following paragraphs.
# Recombinant full-length N-terminally His-tagged human TBK1, expressed in insect cells and purified by Ni-NTA affinity chromatography, was purchased from Life Technologies (Cat. No PR5618B) and used as enzyme. As substrate for the kinase reaction biotinylated peptide biotin-Ahx-[…] (C-terminus in amide form) was used which can be purchased e.g. form the company Biosyntan (Berlin-Buch, Germany).
# The concentration of TBK1 was adjusted depending of the activity of the enzyme lot and was chosen appropriate to have the assay in the linear range, typical concentrations were in the range of 0.002-0.004 μg/mL. The reaction was stopped by the addition of 3 μL of a solution of TR-FRET detection reagents (0.33 μM streptavidine-XL665 [Cisbio Bioassays, Codolet, France], 2.5 nM anti-phosho-Serine antibody [Merck Millipore, “STK antibody”, cat. #35-002] and 1.25 nM LANCE EU-W1024 labeled anti-mouse IgG antibody [Perkin-Elmer, product no. AD0077]) in an aqueous EDTA-solution (167 mM EDTA, 0.13% (w/v) bovine serum albumin in 100 mM HEPES/NaOH pH 7.5).
# human ROCK-II = biological target: T2, human ROCK-II (Homo sapiens, UniProt O75116); assay: ROCK-II kinase assay (ADP-Glo); type: biochemical; conditions: 10 μM ATP, 15 min preincubation, 30 min at 22° C.
# T2 construct: human ROCK-II (amino acids 11-552); His6 (N); purchased Eurofins 14-451-K; host or cells: baculovirus infected SF21 insect cells
# Description: ROCK-II-inhibitory activity of compounds of the present invention was quantified employing the ROCK-II assay as described in the following paragraphs. In essence, the enzyme activity is measured by quantification of the adenosine-di-phosphate (ADP), which is generated as a co-product of the enzyme reaction, via the “ADP-Glo™ Kinase Assay” kit from the company Promega. This detection system works as follows: In a first step the adenosine-tri-phosphate (ATP) not consumed in the kinase reaction is quantitatively converted to cAMP employing an adenylate cyclase (“ADP-Glo-reagent”), then the adenylate cyclase is stopped and the ADP generated in the kinase reaction converted to ATP which generates in a luciferase-based reaction a glow-luminescence signal (“Kinase Detection Reagent”).
# As substrate for the kinase reaction the biotinylated peptide biotin-Ahx-[…] (C-terminus in amide form) was used which can be purchased e.g. from the company Biosyntan (Berlin-Buch, Germany).
# The concentration of ROCK-II was adjusted depending of the activity of the enzyme lot and was chosen appropriate to have the assay in the linear range, a typical concentration is about 5 nM. The reaction was stopped by the addition of 2.5 μl of “ADP-Glo-reagent” (1:1, 5 fold diluted) and the resulting mixture was incubated at 22° C. for 1 h to convert the ATP not consumed in the kinase reaction completely to cAMP. […] The amount of emitted light was taken as a measure for the amount of ADP generated and thereby for the activity of the ROCK-II.
# MAP4K1 = MAP4K1 (Homo sapiens, UniProt Q92918); assay: MAP4K1 binding competition assay (TR-FRET, Tracer 222)
# Sequence of MAP4K1 (Q92918 whole entry): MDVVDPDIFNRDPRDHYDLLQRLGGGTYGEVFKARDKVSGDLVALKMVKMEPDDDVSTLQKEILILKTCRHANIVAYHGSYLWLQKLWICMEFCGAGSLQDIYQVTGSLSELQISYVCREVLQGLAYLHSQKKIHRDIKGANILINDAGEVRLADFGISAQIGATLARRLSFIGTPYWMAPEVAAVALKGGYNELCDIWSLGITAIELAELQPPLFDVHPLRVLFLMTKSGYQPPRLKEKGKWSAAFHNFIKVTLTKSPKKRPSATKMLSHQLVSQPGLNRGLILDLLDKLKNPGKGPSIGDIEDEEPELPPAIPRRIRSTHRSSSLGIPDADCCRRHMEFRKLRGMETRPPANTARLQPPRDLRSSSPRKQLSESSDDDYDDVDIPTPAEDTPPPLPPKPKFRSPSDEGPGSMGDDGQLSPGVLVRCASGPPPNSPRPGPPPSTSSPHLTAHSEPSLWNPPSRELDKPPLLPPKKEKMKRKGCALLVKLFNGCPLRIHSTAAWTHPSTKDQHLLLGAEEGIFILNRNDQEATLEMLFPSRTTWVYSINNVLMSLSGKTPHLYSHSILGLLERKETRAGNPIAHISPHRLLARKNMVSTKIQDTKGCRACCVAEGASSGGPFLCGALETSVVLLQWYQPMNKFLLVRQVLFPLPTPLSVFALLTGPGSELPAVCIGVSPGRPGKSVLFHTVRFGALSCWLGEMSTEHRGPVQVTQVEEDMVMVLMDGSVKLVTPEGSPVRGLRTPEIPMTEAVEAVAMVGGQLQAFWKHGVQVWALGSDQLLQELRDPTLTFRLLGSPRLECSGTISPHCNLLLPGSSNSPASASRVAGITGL
# T2 sequence (O75116 11-552): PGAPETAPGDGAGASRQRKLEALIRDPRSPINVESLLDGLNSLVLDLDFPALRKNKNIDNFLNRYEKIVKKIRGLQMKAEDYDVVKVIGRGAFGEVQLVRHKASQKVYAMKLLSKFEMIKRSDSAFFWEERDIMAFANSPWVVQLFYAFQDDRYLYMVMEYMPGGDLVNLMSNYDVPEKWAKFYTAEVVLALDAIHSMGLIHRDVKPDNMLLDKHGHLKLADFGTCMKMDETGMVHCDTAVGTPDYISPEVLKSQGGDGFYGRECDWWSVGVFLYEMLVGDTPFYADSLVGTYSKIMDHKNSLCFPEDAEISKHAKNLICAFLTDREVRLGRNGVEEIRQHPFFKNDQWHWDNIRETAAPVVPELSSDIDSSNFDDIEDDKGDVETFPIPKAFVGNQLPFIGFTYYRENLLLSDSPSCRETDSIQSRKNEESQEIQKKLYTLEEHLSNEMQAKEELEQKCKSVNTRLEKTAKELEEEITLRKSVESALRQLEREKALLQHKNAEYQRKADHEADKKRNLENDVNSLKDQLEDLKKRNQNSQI
compound,measurement,setting,value
"Fc1cc(NC2=NCC3(CCOC3)CO2)cc(F)c1Oc1ccnc2[nH]cc(C3(C(F)(F)F)CC3)c12 (racemic) [Example 5, (+/−)-N-[3,5-difluoro-4-({3-[1-(trifluoromethyl)cyclopropyl]-1H-pyrrolo[2,3-b]pyridin-4-yl}oxy)phenyl]-2,7-dioxa-9-azaspiro[4.5]dec-8-en-8-amine]",IC50,human TBK1,> 20000 nM
"Fc1cc(NC2=NCC3(CCOC3)CO2)cc(F)c1Oc1ccnc2[nH]cc(C3(C(F)(F)F)CCC3)c12 (racemic) [Example 13, (+/−)-N-[3,5-difluoro-4-({3-[1-(trifluoromethyl)cyclobutyl]-1H-pyrrolo[2,3-b]pyridin-4-yl}oxy)phenyl]-2,7-dioxa-9-azaspiro[4.5]dec-8-en-8-amine]",IC50,human TBK1,> 20000 nM
same,IC50,human ROCK-II,1200 nM
same,IC50,MAP4K1,6.2 nM
"Fc1cc(NC2=NCC3(CCOC3)CO2)cc(F)c1Oc1ccnc2[nH]cc(C3(C(F)(F)F)CC3)c12 (single isomer, unassigned; enantiomer 1) [Example 6, N-[3,5-difluoro-4-({3-[1-(trifluoromethyl)cyclopropyl]-1H-pyrrolo[2,3-b]pyridin-4-yl}oxy)phenyl]-2,7-dioxa-9-azaspiro[4.5]dec-8-en-8-amine (single enantiomer 1)]",IC50,human TBK1,> 20000 nM
"Fc1cc(NC2=NCC3(CCOC3)CO2)cc(F)c1Oc1ccnc2[nH]cc(C3(C(F)(F)F)CC3)c12 (single isomer, unassigned; enantiomer 2) [Example 7, N-[3,5-difluoro-4-({3-[1-(trifluoromethyl)cyclopropyl]-1H-pyrrolo[2,3-b]pyridin-4-yl}oxy)phenyl]-2,7-dioxa-9-azaspiro[4.5]dec-8-en-8-amine (single enantiomer 2)]",IC50,human TBK1,> 20000 nM
"Fc1cc(NC2=NCC3(CCC3)CO2)cc(F)c1Oc1ccnc2[nH]cc(C3(C(F)(F)F)CCC3)c12 [Example 1, N-[3,5-difluoro-4-({3-[1-(trifluoromethyl)cyclobutyl]-1H-pyrrolo[2,3-b]pyridin-4-yl}oxy)phenyl]-6-oxa-8-azaspiro[3.5]non-7-en-7-amine]",IC50,human TBK1,> 20000 nM
same,IC50,human ROCK-II,5600 nM
same,IC50,MAP4K1,8.5 nM
"Fc1cc(NC2=NCC3(CCOCC3)CO2)cc(F)c1Oc1ccnc2[nH]cc(C3(C(F)(F)F)CCC3)c12 [Example 2, N-[3,5-difluoro-4-({3-[1-(trifluoromethyl)cyclobutyl]-1H-pyrrolo[2,3-b]pyridin-4-yl}oxy)phenyl]-2,9-dioxa-4-azaspiro[5.5]undec-3-en-3-amine]",IC50,human TBK1,> 20000 nM
same,IC50,human ROCK-II,1900 nM
same,IC50,MAP4K1,4.2 nM
"Fc1cc(NC2=NCC3(CC3)CO2)cc(F)c1Oc1ccnc2[nH]cc(C3(C(F)(F)F)CCC3)c12 [Example 3, N-[3,5-difluoro-4-({3-[1-(trifluoromethyl)cyclobutyl]-1H-pyrrolo[2,3-b]pyridin-4-yl}oxy)phenyl]-5-oxa-7-azaspiro[2.5]oct-6-en-6-amine]",IC50,human TBK1,> 20000 nM
same,IC50,human ROCK-II,1600 nM
same,IC50,MAP4K1,4 nM
"CC1(C)CN=C(Nc2cc(F)c(Oc3ccnc4[nH]cc(C5(C(F)(F)F)CCC5)c34)c(F)c2)OC1 [Example 4, N-[3,5-difluoro-4-({3-[1-(trifluoromethyl)cyclobutyl]-1H-pyrrolo[2,3-b]pyridin-4-yl}oxy)phenyl]-5,5-dimethyl-5,6-dihydro-4H-1,3-oxazin-2-amine]",IC50,human TBK1,> 20000 nM
same,IC50,human ROCK-II,4100 nM
same,IC50,MAP4K1,6.2 nM
"Fc1cc(NC2=NCC3(COC3)CO2)cc(F)c1Oc1ccnc2[nH]cc(C3(C(F)(F)F)CC3)c12 [Example 8, N-[3,5-difluoro-4-({3-[1-(trifluoromethyl)cyclopropyl]-1H-pyrrolo[2,3-b]pyridin-4-yl}oxy)phenyl]-2,6-dioxa-8-azaspiro[3.5]non-7-en-7-amine]",IC50,human TBK1,> 20000 nM
same,IC50,human ROCK-II,500 nM
same,IC50,MAP4K1,5 nM
"CC1(C)CN=C(Nc2cc(F)c(Oc3ccnc4[nH]cc(C5(C(F)(F)F)CC5)c34)c(F)c2)OC1 [Example 9, N-[3,5-difluoro-4-({3-[1-(trifluoromethyl)cyclopropyl]-1H-pyrrolo[2,3-b]pyridin-4-yl}oxy)phenyl]-5,5-dimethyl-5,6-dihydro-4H-1,3-oxazin-2-amine]",IC50,human TBK1,> 20000 nM
"Fc1cc(NC2=NCC3(CC3)CO2)cc(F)c1Oc1ccnc2[nH]cc(C3(C(F)(F)F)CC3)c12 [Example 10, N-[3,5-difluoro-4-({3-[1-(trifluoromethyl)cyclopropyl]-1H-pyrrolo[2,3-b]pyridin-4-yl}oxy)phenyl]-5-oxa-7-azaspiro[2.5]oct-6-en-6-amine]",IC50,human TBK1,> 20000 nM
"Fc1cc(NC2=NCC3(CCOCC3)CO2)cc(F)c1Oc1ccnc2[nH]cc(C3(C(F)(F)F)CC3)c12 [Example 11, N-[3,5-difluoro-4-({3-[1-(trifluoromethyl)cyclopropyl]-1H-pyrrolo[2,3-b]pyridin-4-yl}oxy)phenyl]-2,9-dioxa-4-azaspiro[5.5]undec-3-en-3-amine]",IC50,human TBK1,> 20000 nM
"Fc1cc(NC2=NCC3(CCC3)CO2)cc(F)c1Oc1ccnc2[nH]cc(C3(C(F)(F)F)CC3)c12 [Example 12, N-[3,5-difluoro-4-({3-[1-(trifluoromethyl)cyclopropyl]-1H-pyrrolo[2,3-b]pyridin-4-yl}oxy)phenyl]-6-oxa-8-azaspiro[3.5]non-7-en-7-amine]",IC50,human TBK1,> 20000 nM
"Fc1cc(NC2=NCC3(COC3)CO2)cc(F)c1Oc1ccnc2[nH]cc(C3(C(F)(F)F)CCC3)c12 [Example 14, N-[3,5-difluoro-4-({3-[1-(trifluoromethyl)cyclobutyl]-1H-pyrrolo[2,3-b]pyridin-4-yl}oxy)phenyl]-2,6-dioxa-8-azaspiro[3.5]non-7-en-7-amine]",IC50,human TBK1,> 20000 nM
same,IC50,human ROCK-II,1300 nM
same,IC50,MAP4K1,6.9 nM
